Key:
hairless mice skin [1] = assay: Barrier recovery (TEWL) after tape stripping with topical application of reagent; format: in vivo, hairless mice (HR-1); conditions: for effect on barrier recovery (percent recovery of TEWL): topical, 100 μl aqueous solution containing 1 μM of reagent immediately after tape stripping, TEWL at 1, 3 and 6 hours, vs water control, FIG. 3
Method: All experiments were performed on 7-10-week old male hairless mice (HR-1, Hoshino, Japan). All procedures for measuring of skin barrier function, disrupting the barrier and applying the sample were carried out under anesthesia. All experiments were approved by the Animal Research Committee of the Shiseido Research Center in accordance with the National Research Council Guide (National Research Council 1996). Human skin experiments were carried out on the inner forearm of healthy males who gave their informed consent. 4 alpha-phorbol 12,13-[…] (4 alpha-PDD) and Rutenium-Red were purchased from Sigma (Sigma, St.Louis, Mich. USA). Capsaicin, capsazepine, and 2-aminoethoxydiphenyl borate (2-APB) were purchased from Tocris (TOCRIS, Bristol, UK). Camphor was purchased Wako (Wako, Osaka, Japan). Capsaicin is an agonist of TRPV1 and capsazepine is an antagonist of TRPV1 (Caterina et al. 1997). Both 2-APB and camphor are activator of TRPV3 (Chung et al. 2003)(Moquich et al. 2005). 4 alpha-PDD is an activator of TRPV4 and Rutenium-Red is a blocker of TRPV4 (Watanabe et al. 2002).
(§1) Permeability barrier function was evaluated by measurement of transepidermal water loss (TEWL) with an electric water analyzer, as described previously (Denda et al. 1998). For barrier recovery experiments, both sides of flank skin were treated with repeated tape stripping procedure until the TEWL reached 7-10 mg per cm^2 per h, as described previously (Denda et al. 1998). Immediately after barrier disruption, 100 μl of an aqueous solution containing 1 μM of reagent or water alone (control) was applied to the treated area. […] The areas were covered with plastic membranes for 15 min and then the membranes were removed. Two points in one side of flank were measured and 4-8 mice were used to evaluate the effects of each treatment. We always disrupted the barrier within 7:00 AM to 8:00 AM and carried out the following measurements of the barrier repair to avoid the deviation of the repair rate due to the influence of circadian rhythm (Denda et al. 2000). TEWL was then measured over the same sites at 1, 3 and 6 hours after barrier disruption. The barrier recovery results are expressed as percent of recovery, because of variations from day to day in the extent of barrier disruption. In each animal, the percentage of recovery was calculated by the following formula: (TEWL immediately after barrier disruption−TEWL at indicated time point)/(TEWL immediately after barrier disruption−baseline TEWL)×100%. All experiments were performed on 7 to 10-week-old male hairless mice (HR-1, Hoshino, Japan). All procedures of the measurement of skin barrier function, disruption of the barrier and application of test sample were carried out under anesthesia.
The results are expressed as the mean ± SD. Statistical differences between two groups were determined by a two-tailed Student's t-test. In the case of more than 2 groups, differences were determined by ANOVA test (Fisher's protected least significant difference).

hairless mice skin [2] = assay: Barrier recovery (TEWL) after tape stripping with applied heat plus topical reagent; format: in vivo, hairless mice (HR-1); conditions: topical application, FIG. 4
Method: as §1, with “We always disrupted the barrier within 7:00 AM to 8:00 AM and carried out the following measurements of the barrier repair to avoid the deviation of the repair rate due to the influence of circadian rhythm (Denda et al. 2000).” left out, “All experiments were performed on 7 to 10-week-old male hairless mice (HR-1, Hoshino, Japan). All procedures of the measurement of skin barrier function, disruption of the barrier and application of test sample were carried out under anesthesia.” left out
The results are expressed as the mean ± SD. Statistical differences between two groups were determined by a two-tailed Student's t-test. […]

Compound | effect on barrier recovery (percent recovery of TEWL) (hairless mice skin [1]) | effect on the acceleration of the barrier recovery by heat 36° C. (hairless mice skin [2]; heat 36° C. applied for one hour after tape stripping) | effect on the delay of barrier recovery after capsaicin application (hairless mice skin [1]; topical application on hairless mice skin after tape stripping, as worded in the summary b8) | effect on the delay of the barrier recovery by heat 42° C. (hairless mice skin [2]; heat 42° C. applied for one hour after tape stripping)
CCCCCCCCCC(=O)O[C@@H]1[C@@H](C)[C@@]2(O)[C@@H](C=C(CO)C[C@@]3(O)C(=O)C(C)=C[C@@H]23)[C@@H]2C(C)(C)[C@]12OC(=O)CCCCCCCCC [4 alpha-PDD, 4 alpha-phorbol 12,13-didecanoate] | accelerated the barrier recovery | – | – | –
Rutenium-Red | delayed the recovery | blocked the acceleration of the barrier recovery by heat 36 °C | – | –
CC12CCC(CC1=O)C2(C)C (stereo not drawn) [camphor, Camphor] | did not affect the barrier recovery rate | – | – | –
COc1cc(CNC(=O)CCCC/C=C/C(C)C)ccc1O [capsaicin, Capsaicin] | delayed the barrier recovery | – | – | –
NCCOB(c1ccccc1)c1ccccc1 [2-aminoethoxydiphenyl borate] | did not affect the barrier recovery rate | – | – | –
Oc1cc2c(cc1O)CN(C(=S)NCCc1ccc(Cl)cc1)CCC2 [capsazepine] | accelerated the barrier repair | – | the delay was blocked | blocked the delay of the barrier recovery by heat 42 °C
